Five molecules from ChEMBL document CHEMBL5465560, “Selectivity Literature for EUbOPEN Chemogenomic Library” (2024) can be followed below.

The target in assay [1] is T1, Serine/threonine-protein kinase 36 (Homo sapiens) (UniProt Q9NRP7).
T1 sequence (whole entry): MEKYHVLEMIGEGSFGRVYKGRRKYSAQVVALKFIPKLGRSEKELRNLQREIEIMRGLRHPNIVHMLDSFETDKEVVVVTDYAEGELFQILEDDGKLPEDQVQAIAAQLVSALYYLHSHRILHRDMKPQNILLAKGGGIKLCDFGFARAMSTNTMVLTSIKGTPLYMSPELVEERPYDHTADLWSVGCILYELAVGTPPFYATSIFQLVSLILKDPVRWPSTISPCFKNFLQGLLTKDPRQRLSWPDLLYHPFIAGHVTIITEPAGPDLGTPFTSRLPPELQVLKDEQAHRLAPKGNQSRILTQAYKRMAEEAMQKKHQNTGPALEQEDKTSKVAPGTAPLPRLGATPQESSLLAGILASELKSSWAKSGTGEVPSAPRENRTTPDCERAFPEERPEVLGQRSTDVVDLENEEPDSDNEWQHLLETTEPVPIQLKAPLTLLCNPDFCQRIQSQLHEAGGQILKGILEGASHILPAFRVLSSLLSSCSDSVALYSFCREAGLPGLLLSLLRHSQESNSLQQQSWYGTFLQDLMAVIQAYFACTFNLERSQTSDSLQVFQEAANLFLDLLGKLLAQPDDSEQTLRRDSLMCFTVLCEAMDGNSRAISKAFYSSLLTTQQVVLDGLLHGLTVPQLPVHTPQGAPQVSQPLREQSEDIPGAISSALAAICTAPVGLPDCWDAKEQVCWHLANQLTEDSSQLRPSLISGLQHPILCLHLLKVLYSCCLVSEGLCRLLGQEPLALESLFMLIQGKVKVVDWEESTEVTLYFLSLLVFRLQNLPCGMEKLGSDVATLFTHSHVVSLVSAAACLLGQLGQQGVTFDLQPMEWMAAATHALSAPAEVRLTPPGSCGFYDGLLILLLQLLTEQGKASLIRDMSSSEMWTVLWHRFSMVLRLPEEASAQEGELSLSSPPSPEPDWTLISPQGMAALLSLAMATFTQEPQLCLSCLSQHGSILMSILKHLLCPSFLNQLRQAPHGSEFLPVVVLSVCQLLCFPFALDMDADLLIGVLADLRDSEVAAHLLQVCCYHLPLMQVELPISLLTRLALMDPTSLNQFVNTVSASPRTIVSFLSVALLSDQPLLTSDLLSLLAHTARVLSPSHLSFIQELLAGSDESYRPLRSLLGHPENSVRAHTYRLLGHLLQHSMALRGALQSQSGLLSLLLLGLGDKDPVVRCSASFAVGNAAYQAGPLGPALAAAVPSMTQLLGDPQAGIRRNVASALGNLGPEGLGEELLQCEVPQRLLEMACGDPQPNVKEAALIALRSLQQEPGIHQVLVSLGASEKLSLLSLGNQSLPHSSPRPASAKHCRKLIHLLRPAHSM
Conditions: at 10 µM.

In assay [2] the target is T2, TGF-beta receptor type-1 (Homo sapiens) (UniProt P36897).
T2 sequence (whole entry): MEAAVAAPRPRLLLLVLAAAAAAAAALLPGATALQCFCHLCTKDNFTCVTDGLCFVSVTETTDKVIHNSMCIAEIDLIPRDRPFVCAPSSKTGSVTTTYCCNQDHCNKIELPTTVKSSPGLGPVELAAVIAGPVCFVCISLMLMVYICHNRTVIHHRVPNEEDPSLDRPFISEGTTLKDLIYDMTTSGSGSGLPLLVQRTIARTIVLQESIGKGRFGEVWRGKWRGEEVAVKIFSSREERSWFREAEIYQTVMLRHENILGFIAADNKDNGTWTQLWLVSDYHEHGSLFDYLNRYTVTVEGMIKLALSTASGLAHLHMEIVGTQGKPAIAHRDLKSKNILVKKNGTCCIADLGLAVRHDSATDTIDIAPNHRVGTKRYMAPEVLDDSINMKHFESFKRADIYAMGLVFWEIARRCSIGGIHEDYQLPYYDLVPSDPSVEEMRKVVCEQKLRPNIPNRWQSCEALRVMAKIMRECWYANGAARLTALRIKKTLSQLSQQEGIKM
Put plainly: Selectivity interaction (Ambit KINOMEscan and KiNATiv profiling in Jurkat cells) EUB0000090b TGFBR1. Particulars: at 1 µM. Type of assay: cell-based.

In assay [3] the target is Serine/threonine-protein kinase PAK 3 (Homo sapiens) (UniProt O75914). Put plainly: Selectivity interaction (KinomeScan (DiscoverX)) EUB0000092b PAK3. Particulars: at 10 µM.
Serine/threonine-protein kinase PAK 3 (Homo sapiens), sequence (O75914 whole entry, looked up): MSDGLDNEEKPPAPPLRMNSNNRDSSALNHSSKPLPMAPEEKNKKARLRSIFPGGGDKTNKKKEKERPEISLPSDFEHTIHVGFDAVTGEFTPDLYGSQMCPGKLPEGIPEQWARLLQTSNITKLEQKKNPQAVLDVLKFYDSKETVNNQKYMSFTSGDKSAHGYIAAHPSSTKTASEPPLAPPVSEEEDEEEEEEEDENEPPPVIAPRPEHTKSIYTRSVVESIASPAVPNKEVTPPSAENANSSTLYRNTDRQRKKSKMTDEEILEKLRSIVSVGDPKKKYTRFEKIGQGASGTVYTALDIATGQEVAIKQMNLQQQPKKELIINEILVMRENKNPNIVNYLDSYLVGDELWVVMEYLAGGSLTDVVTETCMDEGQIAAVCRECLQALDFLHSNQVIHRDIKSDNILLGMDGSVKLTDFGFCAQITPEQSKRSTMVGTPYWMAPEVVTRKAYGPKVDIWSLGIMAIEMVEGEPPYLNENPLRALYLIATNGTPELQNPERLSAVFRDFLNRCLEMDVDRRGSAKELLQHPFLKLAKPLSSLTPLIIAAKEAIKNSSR
In assay [4] the target is Dual specificity protein kinase CLK2 (Homo sapiens, UniProt P49760). Put plainly: Selectivity interaction (KinomeScan (DiscoverX)) EUB0001049a CLK2. Conditions: at 1 µM.
Dual specificity protein kinase CLK2, sequence (P49760 whole entry, looked up): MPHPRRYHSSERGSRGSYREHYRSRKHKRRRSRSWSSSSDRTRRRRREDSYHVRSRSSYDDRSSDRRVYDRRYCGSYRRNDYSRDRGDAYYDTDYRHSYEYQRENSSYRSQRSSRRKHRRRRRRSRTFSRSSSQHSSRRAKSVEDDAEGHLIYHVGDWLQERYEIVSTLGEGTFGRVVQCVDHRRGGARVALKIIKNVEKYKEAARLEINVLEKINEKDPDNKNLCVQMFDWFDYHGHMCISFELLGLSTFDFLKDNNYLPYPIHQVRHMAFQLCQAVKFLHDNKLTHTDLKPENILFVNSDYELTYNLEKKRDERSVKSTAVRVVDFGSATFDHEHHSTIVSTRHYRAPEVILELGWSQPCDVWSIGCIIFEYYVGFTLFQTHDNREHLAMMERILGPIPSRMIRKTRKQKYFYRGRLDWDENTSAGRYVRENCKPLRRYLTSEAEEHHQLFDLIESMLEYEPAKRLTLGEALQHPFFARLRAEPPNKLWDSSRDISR
For assay [5], the target named is T3, Inhibitor of nuclear factor kappa-B kinase subunit epsilon (Homo sapiens) (UniProt Q14164).
T3 sequence (whole entry): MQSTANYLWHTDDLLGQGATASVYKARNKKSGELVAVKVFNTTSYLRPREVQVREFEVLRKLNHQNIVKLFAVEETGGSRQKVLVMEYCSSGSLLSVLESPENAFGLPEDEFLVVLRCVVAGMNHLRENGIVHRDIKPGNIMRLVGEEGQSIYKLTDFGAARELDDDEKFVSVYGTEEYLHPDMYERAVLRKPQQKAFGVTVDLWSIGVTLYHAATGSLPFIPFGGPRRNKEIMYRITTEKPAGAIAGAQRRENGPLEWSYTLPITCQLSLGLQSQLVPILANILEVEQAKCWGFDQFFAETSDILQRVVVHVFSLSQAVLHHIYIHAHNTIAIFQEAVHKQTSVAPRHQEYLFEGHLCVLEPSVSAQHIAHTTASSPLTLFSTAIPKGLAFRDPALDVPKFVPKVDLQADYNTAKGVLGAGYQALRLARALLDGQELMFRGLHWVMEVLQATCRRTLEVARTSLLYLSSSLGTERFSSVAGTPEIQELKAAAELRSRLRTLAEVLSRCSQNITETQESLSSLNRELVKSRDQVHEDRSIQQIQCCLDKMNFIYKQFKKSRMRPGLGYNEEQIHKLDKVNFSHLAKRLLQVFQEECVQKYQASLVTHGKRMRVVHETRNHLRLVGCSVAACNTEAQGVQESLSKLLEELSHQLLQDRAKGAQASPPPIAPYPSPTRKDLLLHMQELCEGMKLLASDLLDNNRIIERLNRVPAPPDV
Briefly: Selectivity interaction (ActivX KiNativ screen (ex vivo kinase selectivity in human PBMCs)) EUB0001619a IKBKE. Type of assay: cell-based. Particulars: PBMC, at 1 µM.

Turning to `Cc1cc([C@@H](C)Nc2ccccc2C(=O)O)c2nc(N3CCOCC3)cc(=O)n2c1` [AZD-6482], in assay [1], the % of control is 100%.
As for `CN(C)C/C=C/C(=O)Nc1ccc(C(=O)N2CCCC(Nc3ncc(Cl)c(-c4c[nH]c5ccccc45)n3)C2)cc1` (stereo not given), the % of control in assay [2] was 87%.
In turn, `CCC(=O)N1CCN(c2ccc(-n3c(=O)ccc4cnc5ccc(-c6cnc7ccccc7c6)cc5c43)cc2C(F)(F)F)CC1` yielded a % of control in assay [3] of 100%.
Take `COc1cc(Nc2nc(C)cc(-c3cnn4nc(OC)ccc34)n2)cc(C(F)(F)F)c1`: in assay [4], the % of control was 96%.
`N#Cc1cccc(-c2c[nH]c3ncnc(N4CCOCC4)c23)c1` gave a % of inhibition in assay [5] of 19%.
